According to patent US20170182026A1, “Anti-Metastasis Treatment of Melanoma” (University Hospitals Cleveland Medical Center, priority 2015, published 2017):
Entries after “also recorded” stand apart in the source; their conditions may differ.

Tests used:
autophagic flux [1] = conditions: pharmacologic blockage of GJIC, reference [21]; cited from earlier work
autophagic flux [2] = test: Western blot of LC3 II/I ratio and p62 levels after connexin (GJIC) inhibitors; type: cell-based; conditions: A375.52 melanoma cells, treatment over 24 hours, FIG. 4A
Text: FIGS. 4A&B presents exemplary data showing an assessment of connexin inhibition on autophagic flux and autophagic blockade on connexin protein levels. […] Tubulin as a loading control. H2O=water control, CBX=Carbenoxolone, Hep=1-Eleptanol, Oct=1-octanol, D=DMSO, HCQ=Hydroxychloroquine.
Connexin protein levels were examined within various melanoma cell lines, see FIG. 3. […] Connexins 43 and 26 has been studied previously in melanoma, and both also have shown relationships with autophagy. […] GJIC inhibition was explored, using three known connexin inhibitors, 1-octanol, 1-heptanol and carbenoxolone, the former of which is clinically available and is labeled as a food additive by the Food and Drug Administration, which is known to affect autophagic flux. GJIC inhibition was measured by changes noted in LC3 II/I ratios and p62 levels. (FIG. 4A).

[3] = system: gap junction intercellular communication; test: Microinjection imaging assay, spread of reporter dye; type: cell-based; conditions: time-lapse microscopy, FIGS. 7A&B
Text: FIGS. 7A&B presents exemplary data Showing cell-cell communication in Glioblastoma Stem Cells (GSCs) cells with live imaging.
The functional status of overall connexin activity after autophagy inhibition will be addressed. […] To measure this, a microinjection imaging assay will be used. One cell is co-injected with a large fluorescent IgG that is unable to leave the parental cell along with a reporter dye that is capable of spreading to adjacent cells. Combining this with time-lapse microscopy, spread of the reporter dye (Lucifer yellow, 2NBDG-a fluorescent glucose analog) can be monitored, see FIGS. 7A&B. The spread of the dye is attenuated when using gap junction inhibitors, including carbenoxolone and 1-octanol. Utilization of multiple assessments of the gap junction intercellular communication, i.e. mRNA expression, protein levels and functional activity levels may pinpoint the particular modulation of GJIC that occurs with autophagic blockade in melanoma cells. […] Additionally, shRNA against shATG5, another key autophagy protein, could be utilized to determine if there were different effects.

melanoma cell lines = test: Promega Cell-Titer Glo cell viability; type: cell-based; conditions: two melanoma cell lines, 72 hours, FIG. 5A
Method: (§1) FIG. 5A-C presents exemplary data showing combinatory effects of hydroxychloroquine (HCQ) and 1-octanol on melanoma cell viability and death. […] 4-methyl-heptanol (1 mM) as negative control.
(§2) The effect of a combined inhibition of GJIC and autophagy was assessed, making use of Promega Cell-Titer Glo and Trypan blue exclusion assay to assess cell viability and cell death, respectively (FIG. 5A and FIG. 5B). […] (FIG. 5C) Cell migration was measured as distance traveled from the edge of a wound and not as percent wound closure.

A375.52 = test: Trypan blue exclusion assay, cell death; type: cell-based; conditions: A375.52, 72 hours, FIG. 5B
Method: as §1, §2

A375.52 cells = test: Scratch assay, cell migration; type: cell-based; conditions: over 24 hours, FIG. 5C
Method: as §1, §2

Cx 36 and 50 = conditions: reference [49]; cited from earlier work
connexins 26, 32, and 43 = conditions: reference [49]; cited from earlier work
connexins = test: Connexin protein levels after autophagy blockade; type: cell-based; conditions: A375.52 cells, treatment over 24 hours, FIG. 4B
Method: FIGS. 4A&B presents exemplary data showing an assessment of connexin inhibition on autophagic flux and autophagic blockade on connexin protein levels. […] Tubulin as a loading control. H2O=water control, CBX=Carbenoxolone, Hep=1-Eleptanol, Oct=1-octanol, D=DMSO, HCQ=Hydroxychloroquine. Connexin protein levels were also assessed for possible modification of autophagic flux. For this purpose, hydroxychloroquine, a known autophagy inhibitor and clinically available medication was used. […] Specific autophagy inhibition may be assessed using shRNA (infra).

## CC1(C)[C@@H](O)CC[C@]2(C)[C@H]3C(=O)C=C4[C@H]5C[C@@](C)(C(=O)O)CC[C@]5(C)CC[C@@]4(C)[C@]3(C)CC[C@@H]12 [18α glycyrrhetinic acid]
Autophagic flux [1]
  autophagic flux: decreased autophagic flux

## CC1(C)[C@@H](OC(=O)CCC(=O)O)CC[C@]2(C)[C@H]3C(=O)C=C4[C@@H]5C[C@@](C)(C(=O)O)CC[C@]5(C)CC[C@@]4(C)[C@]3(C)CC[C@@H]12 [carbenoxolone]
Autophagic flux [2]
  LC3 II/I ratio: without clear changes in LC3 II/I ratio
  p62 levels: decreased p62 levels somewhat
[3]
  spread of the reporter dye (Lucifer yellow, 2NBDG): attenuated

## CCCCCCCCO [1-octanol]
Autophagic flux [2]
  p62 levels: increased p62 levels
  total LC3 levels: changes in total LC3 levels
Melanoma cell lines
  cell viability: only small effects
A375.52
  cell death: only small effects
A375.52 cells
  cell migration (distance traveled from the edge of a wound): no effect
[3]
  spread of the reporter dye (Lucifer yellow, 2NBDG): attenuated

## OC(c1cc(C(F)(F)F)nc2c(C(F)(F)F)cccc12)C1CCCCN1 (stereo not drawn) [mefloquine]
Cx 36 and 50
  block of connexin activity: block activity
Connexins 26, 32, and 43
  block of connexin activity: would require much higher doses to affect

## CCN(CCO)CCCC(C)Nc1ccnc2cc(Cl)ccc12 (racemic) [hydroxychloroquine, (RS)-2-{{4-{(7-chloroquinolin-4-yl)amino}pentyl}(ethyl)amino}ethanol]
connexins
  levels of connexins 43 and 46: opposite effects on levels of connexins 43 and 46
  protein levels of connexins: affects the protein levels of specific connexins; also recorded: does affect protein levels of connexins, but not consistently
A375.52 cells
  cell migration (distance traveled from the edge of a wound): no effect
